Assay results taken from PubChem BioAssay (NCI).
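Values below derive from 48-hour exposures of cells grown in 96-well plates, with endpoints linearly interpolated between the two concentrations bracketing the appropriate inhibition level. TGI marks complete inhibition of growth.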

Tests used:
Test in all cases: NCI tumour cell line growth inhibition, 48 h
[1] = test system: A498 renal
[2] = test system: A549 NSCLC
[3] = test system: CAKI-1 renal
[4] = test system: EKVX NSCLC
[5] = test system: HL-60(TB) leukemia
[6] = test system: MCF7 breast
[7] = test system: OVCAR-5 ovarian
[8] = test system: SF-539 CNS
[9] = test system: SK-MEL-2 melanoma
[10] = test system: SN12C renal
[11] = test system: SNB-19 CNS
[12] = test system: SW-620 colon
[13] = test system: TK-10 renal
[14] = test system: IGROV1 ovarian

SMILES | TGI [1] [µM] | TGI [2] [µM] | TGI [3] [µM] | TGI [4] [µM] | TGI [5] [µM] | TGI [6] [µM] | TGI [7] [µM] | TGI [8] [µM] | TGI [9] [µM] | TGI [10] [µM] | TGI [11] [µM] | TGI [12] [µM] | TGI [13] [µM] | TGI [14] [µM]
Cn1c(-c2cccs2)cc(-c2cccs2)c1-c1ccsc1 | > 100 | > 100 | > 100 | > 100 | > 100 | > 100 | > 100 | > 100 | 98.1 | > 100 | > 100 | > 100 | > 100 | 
Cc1cc2c(c(C=NCc3ccccc3)c1)OC1(C=C2)Oc2ccccc2C(=O)N1C (stereo not drawn) | 77.6 | > 100 | 66.5 | 57.6 | 60.2 | > 100 | 56 |  | 62.6 | 78 | > 100 | > 100 | 79.7 | 68.1
O=c1[nH]nc(Cc2ccccc2)n1Nc1ccccc1 | > 100 | > 100 | > 100 | > 100 | > 100 | > 100 | > 100 | > 100 | > 100 | > 100 |  | > 100 | > 100 | > 100
O=c1oc2ccccc2n1CCN1CCCCC1 | > 100 |  | > 100 | > 100 | > 100 | > 100 | > 100 | > 100 | > 100 | > 100 | > 100 | > 100 | > 100 | > 100
COC(=O)CCC12CCC(O1)c1ccccc12 (stereo not drawn) | > 100 | > 100 | > 100 | > 100 | > 100 | > 100 | > 100 | > 100 |  | > 100 | > 100 | > 100 | > 100 | > 100
C=CC[C@H](C)CCC(=O)N1[C@H]2CC3CC[C@@]2(CS1(=O)=O)C3(C)C | > 100 | > 100 | > 100 | > 100 | 57.3 | > 100 | > 100 |  | > 100 | > 100 | > 100 | > 100 | > 100 | > 100
S=C1N=C(Cl)C2(NN1)c1ccccc1-c1ccccc12 | > 10 | > 10 | > 10 | > 10 | > 10 | > 10 |  | > 10 |  | > 10 |  | > 10 | > 10 | > 10
COc1cccc(-c2cc(=O)c3c(C)ccnc3[nH]2)c1 | > 77.1 | > 100 |  | > 100 | 0.0532 | > 100 | > 100 |  | > 100 | > 100 | > 100 | > 100 | > 100 | > 100
COCc1cc2c(cc1/C=C/[N+](=O)[O-])OCO2 | 30.8 | 32.2 | 34.2 | 36.5 | 85.6 | 48.9 | 30.6 | 44.9 |  | 34 |  | 40.7 | 30.8 | 51.1
Cc1c(NC(=S)Nc2ccc(Cl)cc2)c(=O)n(-c2ccccc2)n1C | > 100 | > 100 | > 100 | > 100 | > 100 | > 100 | > 100 | > 100 |  |  | > 100 | > 100 | > 100 | > 100
COc1ccccc1N1CCN(Cn2c(=O)oc3cccnc32)CC1 | > 100 | > 100 | > 100 | > 100 | > 100 | > 100 | > 100 | > 100 | > 100 |  | > 100 | > 100 | > 100 | > 100
COc1ccc(-c2cc(-c3cc(OC)c(OC)c(OC)c3)cc(-c3cc4ccccc4oc3=O)n2)cc1 | 17.6 | 60 | 17.3 | 31.5 | > 100 | > 100 |  | 7.88 | 62.2 | 49.7 | 37.7 | > 100 | 21.1 | 24.6
C#C[C@]1(O)CC[C@H]2[C@@H]3CCc4cc(OC(=O)c5cccc6cc7ccccc7nc56)ccc4[C@H]3CC[C@@]21C | > 100 | > 100 | 65.1 | > 100 | > 100 | > 100 | > 100 | > 100 | > 100 | 54.7 | > 100 | > 100 |  | > 100
CCOc1cc(NC(C)=O)ccc1C(=O)NN1C(=O)/C(=C/c2cc(OC)c(OC)c(OC)c2)N=C1c1ccccc1 | > 100 | > 100 | > 100 | > 100 | > 100 | > 100 | > 100 | > 100 |  | > 100 | > 100 | > 100 |  | > 100
COc1cc(COC(=O)N2CCC2C(=O)O)c([N+](=O)[O-])cc1OC (stereo not drawn) | > 100 | > 100 |  | > 100 | > 100 | > 100 | > 100 | > 100 |  | > 100 | > 100 | > 100 | > 100 | > 100
COC(=O)c1csc(-c2nc(CCNC(=O)OC(C)(C)C)sc2Br)n1 | > 100 | > 100 |  | > 100 | > 100 | > 100 | > 100 | > 100 |  | > 100 | > 100 | > 100 | > 100 | > 100
CC(=O)OCC1=C(C)C(OC(=O)C(OC(C)=O)[C@@H](NC(=O)c2ccccc2)c2ccccc2)CCC1(C)C (stereo partly drawn) | > 100 | > 100 | > 100 | > 100 | > 100 | > 100 | > 100 | > 100 |  | > 100 | > 100 | > 100 | > 100 | > 100
